Laboratory results from patent US11426397B2, “Piperidinyl- and piperazinyl-substituted heteroaromatic carboxamides as modulators of GPR6” (TAKEDA PHARMACEUTICAL COMPANY LIMITED, priority 2017, dated 2022).

These compounds were tested against T1, GPR6 receptor expressed in CHO-K1 cells (Homo sapiens, UniProt P46095) (assay: In vitro inhibition of cAMP (EC50), cell-based HTRF cAMP assay). Details: inhibition of constitutive cAMP activity of GPR6 in CHO-K1 cells.
T1 construct: expressed in transfected cells
T1 sequence (P46095 whole entry): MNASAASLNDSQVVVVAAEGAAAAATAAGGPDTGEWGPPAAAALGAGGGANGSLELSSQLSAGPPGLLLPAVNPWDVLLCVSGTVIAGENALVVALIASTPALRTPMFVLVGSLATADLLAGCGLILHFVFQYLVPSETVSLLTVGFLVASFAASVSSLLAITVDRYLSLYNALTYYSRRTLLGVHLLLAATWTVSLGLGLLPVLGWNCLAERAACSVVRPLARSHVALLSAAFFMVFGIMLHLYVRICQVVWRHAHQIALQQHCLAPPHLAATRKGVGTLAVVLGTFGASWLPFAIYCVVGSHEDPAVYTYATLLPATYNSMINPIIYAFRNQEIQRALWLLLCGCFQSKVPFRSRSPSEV
How it was run: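 Cellular cAMP measured by Lance Ultra HTRF (Eu-cAMP tracer, ULight anti-cAMP), with EC50 fitted by four-parameter logistic. Test compounds sat on cells 45 min, 37 °C, in pH 7.4 Ringer's with 300 μM IBMX and 0.5% BSA; GPR6 in CHO-K1 induced beforehand by doxycycline, 2 μg/mL, 20 h.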

pEC50, in vitro inhibition of cAMP	Structure (SMILES)
6.7	COc1c(Cl)cccc1C(=O)Nc1cc(C#N)ccc1N1CCC(Oc2ccc(F)cc2F)CC1 [Example 222, 3-chloro-N-(5-cyano-2-(4-(2,4-difluorophenoxy)piperidin-1-yl)phenyl)-2-methoxybenzamide]
6.9	N#Cc1ccc(N2CCC(Oc3ccc(F)cc3F)CC2)c(NC(=O)c2cnc3sccn3c2=O)c1 [Example 200, N-(5-cyano-2-(4-(2,4-difluorophenoxy)piperidin-1-yl)phenyl)-5-oxo-5H-thiazolo[3,2-a]pyrimidine-6-carboxamide]
7.4	COc1ncccc1C(=O)Nc1cc(C(=O)N(C)C)c(C#N)cc1N1CCC(Oc2ccc(F)cc2F)CC1 [Example 272]
7.1	COc1ccc(C(=O)Nc2cc(C#N)ccc2N2CCC(Oc3ccc(F)cc3F)CC2)c(OC)c1 [Example 235, N-(5-cyano-2-(4-(2,4-difluorophenoxy)piperidin-1-yl)phenyl)-2,4-dimethoxybenzamide]
6.3	COc1cn(-c2ccccc2)nc1C(=O)Nc1cc(C#N)ccc1N1CCC(Oc2ccc(F)cc2F)CC1 [Example 219, N-(5-cyano-2-(4-(2,4-difluorophenoxy)piperidin-1-yl)phenyl)-4-methoxy-1-phenyl-1H-pyrazole-3-carboxamide]
6.6	COc1ccc(C(=O)N2CCN(c3ccc(C#N)cc3NC(=O)c3cccnc3OC)CC2)c(F)c1 [Example 284, N-(5-cyano-2-(4-(2-fluoro-4-methoxybenzoyl)piperazin-1-yl)phenyl)-2-methoxynicotinamide]
5.8	COc1cccc(C)c1C(=O)Nc1cc(C#N)ccc1N1CCC(Oc2ccc(F)cc2F)CC1 [Example 227, N-(5-cyano-2-(4-(2,4-difluorophenoxy)piperidin-1-yl)phenyl)-2-methoxy-6-methylbenzamide]
6.4	COc1c(C)cccc1C(=O)Nc1cc(C#N)ccc1N1CCC(Oc2ccc(F)cc2F)CC1 [Example 232, N-(5-cyano-2-(4-(2,4-difluorophenoxy)piperidin-1-yl)phenyl)-2-methoxy-3-methylbenzamide]
6.4	COc1ccc(Br)cc1C(=O)Nc1cc(C#N)ccc1N1CCC(Oc2ccc(F)cc2F)CC1 [Example 225, 5-bromo-N-(5-cyano-2-(4-(2,4-difluorophenoxy)piperidin-1-yl)phenyl)-2-methoxybenzamide]
6.9	COc1ncccc1C(=O)Nc1cc(C#N)ccc1N1CCN(C(=O)c2ccc(Cl)cc2)CC1 [Example 285, N-(2-(4-(4-chlorobenzoyl)piperazin-1-yl)-5-cyanophenyl)-2-methoxynicotinamide]
5.3	O=C(Nc1ccccc1N1CCN(C(=O)c2ccc(Cl)cc2)CC1)c1ccncn1 [Example 259, N-(2-(4-(4-chlorobenzoyl)piperazin-1-yl)phenyl)pyrimidine-4-carboxamide]

The remaining lines, values behind:

Structure (SMILES)	pEC50, in vitro inhibition of cAMP
Cn1cccc(C(=O)Nc2cc(C#N)ccc2N2CCC(Oc3cccc(F)c3F)CC2)c1=O [Example 9, N-(5-cyano-2-(4-(2,3-difluorophenoxy)piperidin-1-yl)phenyl)-1-methyl-2-oxo-1,2-dihydropyridine-3-carboxamide]	6.1
N#Cc1ccc(N2CCC(Oc3ccc(F)cc3F)CC2)c(NC(=O)c2cccnn2)c1 [Example 126, N-(5-cyano-2-(4-(2,4-difluorophenoxy)piperidin-1-yl)phenyl)pyridazine-3-carboxamide]	6.3
Cn1cccc(C(=O)Nc2cc(C#N)ccc2N2CCC([C@H](F)c3ccc(F)cc3F)CC2)c1=O [Example 84, (S)—N-(5-cyano-2-(4-((2,4-difluorophenyl)fluoromethyl)piperidin-1-yl)phenyl)-1-methyl-2-oxo-1,2-dihydropyridine-3-carboxamide]	6.6
N#Cc1ccc(N2CCC(Oc3ccc(F)cc3F)CC2)c(NC(=O)c2cc3n(n2)CCC3)c1 [Example 107, N-(5-cyano-2-(4-(2,4-difluorophenoxy)piperidin-1-yl)phenyl)-5,6-dihydro-4H-pyrrolo[1,2-b]pyrazole-2-carboxamide]	6.6
N#Cc1ccc(N2CCC(Oc3ccc(F)cc3F)CC2)c(NC(=O)c2ccon2)c1 [Example 117, N-(5-cyano-2-(4-(2,4-difluorophenoxy)piperidin-1-yl)phenyl)isoxazole-3-carboxamide]	6.3
N#Cc1ccc(N2CCC(Oc3ccc(F)cc3F)CC2)c(NC(=O)c2ncoc2C2CC2)c1 [Example 111]	5.5
Cc1cccn2c(=O)c(C(=O)Nc3cc(C#N)ccc3N3CCC(Oc4ccc(F)cc4F)CC3)cnc12 [Example 197, N-(5-cyano-2-(4-(2,4-difluorophenoxy)piperidin-1-yl)phenyl)-9-methyl-4-oxo-4H-pyrido[1,2-a]pyrimidine-3-carboxamide]	6.7
COc1cccc(C(=O)Nc2cc(C#N)ccc2N2CCC(Oc3ccc(F)cc3F)CC2)n1 [Example 175, N-(5-cyano-2-(4-(2,4-difluorophenoxy)piperidin-1-yl)phenyl)-6-methoxypicolinamide]	7.0
COc1ncc(C)cc1C(=O)Nc1cc(C(=O)N(C)C)cnc1N1CCC(Oc2ccc(F)cc2F)CC1 [Example 147, 6-(4-(2,4-difluorophenoxy)piperidin-1-yl)-5-(2-methoxy-5-methylnicotinamido)-N,N-dimethylnicotinamide]	6.9
COc1ncccc1C(=O)Nc1cc(C(=O)N(C)C)cnc1N1CCC(Oc2ccc(F)cc2F)CC1 [Example 148, 6-(4-(2,4-difluorophenoxy)piperidin-1-yl)-5-(2-methoxynicotinamido)-N,N-dimethylnicotinamide]	7.2
Cn1cccc(C(=O)Nc2cc(C#N)ccc2N2CCC(Oc3ccccc3F)CC2)c1=O [Example 8]	6.9
Cn1cccc(C(=O)Nc2cnc(Cl)cc2N2CCC(Oc3ccc(F)cc3F)CC2)c1=O [Example 17, N-(6-chloro-4-(4-(2,4-difluorophenoxy)piperidin-1-yl)pyridin-3-yl)-1-methyl-2-oxo-1,2-dihydropyridine-3-carboxamide]	7.2
Cc1cc(C(=O)Nc2cc(C#N)ccc2N2CCC(Oc3ccc(F)cc3F)CC2)c(=O)n(C)c1C [Example 184, N-(5-cyano-2-(4-(2,4-difluorophenoxy)piperidin-1-yl)phenyl)-1,5,6-trimethyl-2-oxo-1,2-dihydropyridine-3-carboxamide]	6.8
COc1nc2c(cc1C(=O)Nc1cc(C#N)ccc1N1CCC(Oc3ccc(F)cc3F)CC1)CCC2 [Example 196, N-(5-cyano-2-(4-(2,4-difluorophenoxy)piperidin-1-yl)phenyl)-2-methoxy-6,7-dihydro-5H-cyclopenta[b]pyridine-3-carboxamide]	6.7
COc1ccc(C(=O)Nc2cc(C#N)ccc2N2CCC(Oc3ccc(F)cc3F)CC2)nn1 [Example 136, N-(5-cyano-2-(4-(2,4-difluorophenoxy)piperidin-1-yl)phenyl)-6-methoxypyridazine-3-carboxamide]	6.8
Cc1cccc(C(=O)Nc2cc(C#N)cnc2N2CCC(Oc3ccc(F)cc3F)CC2)n1 [Example 54, N-(5-cyano-2-(4-(2,4-difluorophenoxy)piperidin-1-yl)pyridin-3-yl)-6-methylpicolinamide]	7.4
COc1nn(C)cc1C(=O)Nc1cc(C#N)cnc1N1CCN(Cc2cc(F)cc(F)c2)CC1 [Example 169, N-(5-cyano-2-(4-(3,5-difluorobenzyl)piperazin-1-yl)pyridin-3-yl)-3-methoxy-1-methyl-1H-pyrazole-4-carboxamide]	6.4
COc1cc(N(C)C)ccc1C(=O)Nc1cc(C#N)ccc1N1CCC(Oc2ccc(F)cc2F)CC1 [Example 188, N-(5-cyano-2-(4-(2,4-difluorophenoxy)piperidin-1-yl)phenyl)-4-(dimethylamino)-2-methoxybenzamide]	6.4
COCc1cnc(N2CCC(Oc3ccc(F)cc3F)CC2)c(NC(=O)c2cccnc2OC)c1 [Example 65, N-(2-(4-(2,4-difluorophenoxy)piperidin-1-yl)-5-(methoxymethyl)pyridin-3-yl)-2-methoxynicotinamide]	7.3
COc1cc(F)ccc1CN1CCN(c2ncc(C#N)cc2NC(=O)c2cn(C)nc2OC)CC1 [Example 155, N-(5-cyano-2-(4-(4-fluoro-2-methoxybenzyl)piperazin-1-yl)pyridin-3-yl)-3-methoxy-1-methyl-1H-pyrazole-4-carboxamide]	6.3
COc1ncccc1C(=O)Nc1cc(C#N)ccc1N1CCN(Cc2ccc(F)cc2)CC1 [Example 91, N-(5-cyano-2-(4-(4-fluorobenzyl)piperazin-1-yl)phenyl)-2-methoxynicotinamide]	7.1
Cc1ccc(C(=O)Nc2cc(C#N)ccc2N2CCC(Oc3ccc(F)cc3F)CC2)nc1 [Example 124, N-(5-cyano-2-(4-(2,4-difluorophenoxy)piperidin-1-yl)phenyl)-5-methylpicolinamide]	6.9
N#Cc1ccc(N2CCC(Oc3ccc(F)cc3F)CC2)c(NC(=O)c2ccc(F)cn2)c1 [Example 106, N-(5-cyano-2-(4-(2,4-difluorophenoxy)piperidin-1-yl)phenyl)-5-fluoropicolinamide]	6.5
